Reference: patent US20250122147A1, “ARYL CYCLOHEXANEDIONE DERIVATIVE OR SALT THEREOF, PEST CONTROL AGENT CONTAINING SAME, AND METHOD FOR USE THEREOF” (ADEKA Corporation, priority 2021, published 2025)

System: Plutella xylostella
Assay: Insecticidal test against Plutella xylostella
Conditions: 500 ppm drug solution; Chinese cabbage seedlings with eggs immersed about 30 sec; six days after immersion; 25° C.
Description: Six days after the immersion in the drug solution, the number of surviving insects was examined. […] In triplicate using 10 per plot.

SMILES	corrected mortality, rating of assessment
O=C1CC(c2ccc(S(=O)(=O)C(F)(F)F)cc2)CC(O)=C1C(=O)Nc1ccc(F)cc1 (centres unmarked) [1-209]	D or higher
O=C1CC(c2ccc(C(F)(F)F)cc2)CC(O)=C1C(=O)Nc1ncc(F)cn1 (centres unmarked) [1-155]	D or higher
CC1(c2ccc(C(F)(F)F)cc2)CC(=O)C(C(=S)Nc2ccc(F)cc2)=C(O)C1 (centres unmarked) [1-140]	D or higher
O=C1CC(c2ccc(C(F)(F)F)cc2)CC(O)=C1C(=O)Nc1cccc2ncccc12 (centres unmarked) [1-156]	D or higher
O=C1CC(c2ccc(C(F)(F)F)c(Cl)c2)CC(O)=C1C(=O)Nc1ccc(F)cc1 (centres unmarked) [1-3]	D or higher
COc1ccc(NC(=O)C2=C(O)CC(c3ccc(C(F)(F)F)cc3)CC2=O)cc1 (centres unmarked) [1-8]	D or higher
O=C1CC(c2cc(C(F)(F)F)cc(C(F)(F)F)c2)CC(O)=C1C(=O)Nc1ccc(F)cc1 (centres unmarked) [1-2]	D or higher
O=C1CC(c2ccc(C(F)(F)F)cc2)CC(O)=C1C(=O)Nc1cccc2ccccc12 (centres unmarked) [1-39]	D or higher
O=C1CC(c2ccc(C(F)(F)F)nc2)CC(O)=C1C(=O)Nc1ccc(C(F)(F)F)cc1 (centres unmarked) [1-69]	D or higher
N#Cc1ccc(NC(=S)C2=C(O)CC(c3ccc(C(F)(F)F)cc3)CC2=O)cc1 (centres unmarked) [1-100]	D or higher
O=C1CC(c2ccc(C(F)(F)F)cc2)CC(O)=C1C(=S)Nc1cccc(C(F)(F)F)c1 (centres unmarked) [1-99]	D or higher
CC(=O)c1ccc(NC(=O)C2=C(O)CC(c3ccc(C(F)(F)F)cc3)CC2=O)cc1 (centres unmarked) [1-36]	D or higher
CSc1ccc(C2CC(=O)C(C(=O)Nc3ccc(F)cc3)=C(O)C2)cc1 (centres unmarked) [1-208]	D or higher
O=C1CC(c2ccc(C(F)(F)F)nc2)CC(O)=C1C(=O)Nc1ccc(Cl)cc1 (centres unmarked) [1-71]	D or higher
O=C1CC(c2ccc(C(F)(F)F)cc2)CC(O)=C1C(=O)Nc1ccc(F)nn1 (centres unmarked) [1-162]	D or higher
O=C1CC(c2ccc(C(F)(F)F)cc2)CC(O)=C1C(=O)NC1CC1 (centres unmarked) [1-144]	D or higher
O=C1CC(c2ccc(C(F)(F)F)cc2)CC(O)=C1C(=O)NCc1ccccc1 (centres unmarked) [1-12]	D or higher
O=C1CC(c2ccc(C(F)(F)F)cc2)CC(O)=C1C(=O)Nc1ccc(F)cc1 (centres unmarked) [1-6]	D or higher
O=C1CC(c2ccc(C(F)(F)F)cc2)CC(O)=C1C(=S)Nc1cccc(F)c1 (centres unmarked) [1-95]	D or higher
O=C1CC(c2ccc(C(F)(F)F)cc2)CC(O)=C1C(=O)Nc1ccc2c(c1)OCO2 (centres unmarked) [1-55]	D or higher
CS(=O)(=O)c1ccc(C2CC(=O)C(C(=O)Nc3ccc(Cl)cc3)=C(O)C2)cc1 (centres unmarked) [1-232]	D or higher
O=C1CC(c2ccc(OC(F)(F)F)cc2)CC(O)=C1C(=O)Nc1ccc(F)cc1 (centres unmarked) [1-65]	D or higher
O=C1CC(c2ccc(C(F)(F)F)cc2)CC(O)=C1C(=O)NC1CCCCC1 (centres unmarked) [1-11]	D or higher
O=C1CC(c2ccc(C(F)(F)F)cc2)CC(O)=C1C(=O)Nc1ccc(Cl)cc1Cl (centres unmarked) [1-22]	D or higher
O=C1CC(c2cccs2)CC(O)=C1C(=O)Nc1cccs1 (centres unmarked) [1-75]	D or higher
O=C1CC(c2ccc(C(F)(F)F)cc2)CC(O)=C1C(=O)Nc1c(F)c(F)c(F)c(F)c1F (centres unmarked) [1-45]	D or higher
O=C1CC(c2ccc(C(F)(F)F)cc2)CC(O)=C1C(=S)Nc1ccc(F)cc1 (centres unmarked) [1-81]	D or higher
O=C1CC(c2ccc(C(F)(F)F)c(Cl)c2)CC(O)=C1C(=S)Nc1ccc(C(F)(F)F)cc1 (centres unmarked) [1-77]	D or higher
CSc1ccc(NC(=O)C2=C(O)CC(c3ccc(C(F)(F)F)cc3)CC2=O)cc1 (centres unmarked) [1-49]	D or higher
